# Measurements taken from PMC3269340, “Pharmacokinetics of memantine in rats and mice” (PLoS Currents, 2012).
# Legend:
# OCT2 = biological target: T1, OCT2 (Homo sapiens, UniProt O15244); test: Indirect uptake transporter assay, OCT2; assay type: in vitro ADME
# T1 construct: expressed in transfected cells; host or cells: CHO cells
# T1 sequence (O15244 1-555): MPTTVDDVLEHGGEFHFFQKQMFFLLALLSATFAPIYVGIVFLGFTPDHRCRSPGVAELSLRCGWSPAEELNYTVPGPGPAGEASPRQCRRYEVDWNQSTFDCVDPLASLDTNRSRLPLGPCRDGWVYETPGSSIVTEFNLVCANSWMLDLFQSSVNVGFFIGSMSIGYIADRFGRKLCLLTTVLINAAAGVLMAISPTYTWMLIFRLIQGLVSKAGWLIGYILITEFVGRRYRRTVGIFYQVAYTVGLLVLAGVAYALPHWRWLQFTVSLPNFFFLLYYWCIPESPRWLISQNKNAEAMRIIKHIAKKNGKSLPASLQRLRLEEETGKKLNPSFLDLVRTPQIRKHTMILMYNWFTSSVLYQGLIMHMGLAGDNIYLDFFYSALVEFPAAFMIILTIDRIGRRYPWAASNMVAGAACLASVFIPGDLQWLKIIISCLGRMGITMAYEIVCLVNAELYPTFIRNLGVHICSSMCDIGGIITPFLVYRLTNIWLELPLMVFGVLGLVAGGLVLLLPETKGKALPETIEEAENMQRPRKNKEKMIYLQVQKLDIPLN
# Excerpt: To determine whether memantine is an inhibitor of the human OATP2B1 (OATP-B), OCT1, OCT2, OAT3, PEPT1, PEPT2 uptake transporters. The standard uptake transporter assay is an indirect, inhibitory-type screening assay, performed with cold test article, which in this case was memantine. It provides information on any interaction (substrate or inhibitor) between selected uptake transporters and memantine that would affect the transport of the reporter compound. […] A radiolabeled reporter substrate is transported into the cells transfected with the selected human uptake transporter, and the inhibitory effect of memantine on the transport of this reporter substrate is measured. Values are presented on a relative scale; 100% defined as transport in the presence of the solvent and without memantine (no inhibition), and 0% defined as transport detected without transporter activity. IC50 is defined as the concentration required to inhibit the transport of the reporter substrate by 50%. […]
# After the experiment cells were rinsed with 2 x 100µl of Krebs-Henseleit buffer and lysed with 50 µl of 0.1M NaOH. ^3H-estrone-3-sulfate, ^14C-TEA, ^14C-metformin and ^3H-Gly-Sar transport was determined by total radioactivity by transferring an aliquot (35µl) from each well to a vial containing liquid scintillant for analysis.
# human OCT1 = biological target: T2, human OCT1 (Homo sapiens, UniProt O15245); test: Direct uptake transporter assay, OCT1; assay type: in vitro ADME; conditions: for Accumulation in transporter transfected cells: OCT1-transfected cells; for Accumulation in parental cells: parental CHO cells (OCT1 line)
# T2 construct: expressed in transfected cells; host or cells: CHO cells
# T2 sequence (O15245 1-554): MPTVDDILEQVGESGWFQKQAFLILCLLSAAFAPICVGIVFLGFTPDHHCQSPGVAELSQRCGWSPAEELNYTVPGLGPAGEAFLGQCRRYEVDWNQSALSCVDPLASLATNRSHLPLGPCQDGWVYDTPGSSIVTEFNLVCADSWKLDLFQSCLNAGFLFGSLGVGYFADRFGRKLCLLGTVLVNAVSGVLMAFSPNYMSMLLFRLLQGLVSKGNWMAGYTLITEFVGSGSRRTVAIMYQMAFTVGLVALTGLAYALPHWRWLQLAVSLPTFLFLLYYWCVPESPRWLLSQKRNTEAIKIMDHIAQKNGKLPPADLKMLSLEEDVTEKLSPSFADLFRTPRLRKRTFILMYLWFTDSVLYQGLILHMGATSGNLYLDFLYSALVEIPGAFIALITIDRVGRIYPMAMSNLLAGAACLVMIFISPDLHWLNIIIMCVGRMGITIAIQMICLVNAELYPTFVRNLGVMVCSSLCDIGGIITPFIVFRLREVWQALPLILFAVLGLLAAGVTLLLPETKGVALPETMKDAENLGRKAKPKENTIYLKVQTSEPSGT
# Procedure: To determine whether memantine is a substrate of the human OATP2B1 (OATP-B), OCT1, OCT2, OAT3, PEPT1, PEPT2 uptake transporters.
# The potential for memantine to be a substrate of an uptake transporter was determined directly by comparing the uptake of memantine into cells expressing the selected uptake transporter with its uptake into control cells. Memantine was added to transporter-expressing and control cells at two concentrations (PEPT1 and PEPT2 100 and 300 µM, OCT1 and OCT2 50 and 100 µM, OATP2B1 100 and 300 µM), and incubated with cells for 2 and 20 min at 37±1°C (75 µL final incubation volume). […] Incubations were carried out as described in the indirect uptake transporter assays. The concentration of memantine was determined by LC-MS/MS.
compound,measurement,setting,value
CC12CC3CC(C)(C1)CC(N)(C3)C2 [memantine],IC50,OCT2; OCT2-mediated metformin uptake,8.9 µM
same,IC50,"OCT2; OCT2, probe in Table 5: Gly-Sar (1.8 μM), methods and text: metformin",8.86 µM
same,active transport by OCT1,human OCT1,not actively transported
same,Highest Fold Activation,human OCT1; OCT1,Not observed
same,Accumulation in transporter transfected cells,"human OCT1; 2 min, 50 µM",3818 pmol/mg
same,Accumulation in transporter transfected cells,"human OCT1; 2 min, 100 µM",5878 pmol/mg
same,Accumulation in transporter transfected cells,"human OCT1; 20 min, 50 µM",5540 pmol/mg
same,Accumulation in transporter transfected cells,"human OCT1; 20 min, 100 µM",9190 pmol/mg
same,Accumulation in parental cells,"human OCT1; 2 min, 50 µM",3894 pmol/mg
same,Accumulation in parental cells,"human OCT1; 2 min, 100 µM",6337 pmol/mg
same,Accumulation in parental cells,"human OCT1; 20 min, 50 µM",5672 pmol/mg
same,Accumulation in parental cells,"human OCT1; 20 min, 100 µM",9576 pmol/mg
